Values quoted from earlier work as cited in patent US7858117B2, “Amphoteric liposomes and their use” (Novosom AG, priority 2002, dated 2010).

Row | Substance | pK value of the carboxyl group (state of the art) | pI (protein)
1 | cholesterol hemisuccinate | approximately 4.5 | 
2 | lysozyme |  | 11.5
